Source: patent US10660877B2 (BRISTOL-MYERS SQUIBB COMPANY, priority 2016, dated 2020)
Like-named read-outs stand apart in the source and are kept apart here.

Legend:
[1] = biological target: human TLR8 (Homo sapiens (Human), UniProt Q9NR97); assay: TLR8 inhibition reporter assay (HEK-Blue cells, SEAP reporter, R848 stimulation);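 also: compounds tested from 0.05 nM to 50 µM, 22 h at 37 °C, SEAP measured with HEK-Blue Detection, inhibition relative to agonist plus DMSO versus a known inhibitor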
[2] = biological target: human TLR9 (Homo sapiens (Human), UniProt Q9NR96); assay: TLR9 inhibition reporter assay (HEK-Blue cells, SEAP reporter, ODN2006 stimulation);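 also: compounds tested over 0.05 nM to 50 µM, 22 h incubation, inhibition taken as SEAP signal drop from agonist plus DMSO wells toward a known inhibitor control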
[3] = biological target: human TLR7 (Homo sapiens (Human), UniProt Q9NYK1); assay: TLR7 inhibition reporter assay (HEK-Blue cells, SEAP reporter, gardiquimod stimulation); format: cell-based
[4] = read-out: TLR8 IC50, HEK-Blue cells overexpressing human TLR8, R848 15.9 μM
[5] = read-out: TLR9 IC50, HEK-Blue cells overexpressing human TLR9, ODN2006 5 nM
[6] = HEK-Blue cells overexpressing human TLR7, gardiquimod 7.5 μM
[7] = read-out: TLR8 IC50, HEK-Blue cells, R848 15.9 μM
[8] = read-out: TLR9 IC50, HEK-Blue cells, ODN2006 5 nM
[9] = HEK-Blue cells, gardiquimod 7.5 μM
[10] = TLR8 IC50, HEK-Blue cells overexpressing human TLR8, R848 15.9 μM
[11] = TLR9 IC50, HEK-Blue cells overexpressing human TLR9, ODN2006 5 nM

human TLR7, sequence (Q9NYK1 27-1049): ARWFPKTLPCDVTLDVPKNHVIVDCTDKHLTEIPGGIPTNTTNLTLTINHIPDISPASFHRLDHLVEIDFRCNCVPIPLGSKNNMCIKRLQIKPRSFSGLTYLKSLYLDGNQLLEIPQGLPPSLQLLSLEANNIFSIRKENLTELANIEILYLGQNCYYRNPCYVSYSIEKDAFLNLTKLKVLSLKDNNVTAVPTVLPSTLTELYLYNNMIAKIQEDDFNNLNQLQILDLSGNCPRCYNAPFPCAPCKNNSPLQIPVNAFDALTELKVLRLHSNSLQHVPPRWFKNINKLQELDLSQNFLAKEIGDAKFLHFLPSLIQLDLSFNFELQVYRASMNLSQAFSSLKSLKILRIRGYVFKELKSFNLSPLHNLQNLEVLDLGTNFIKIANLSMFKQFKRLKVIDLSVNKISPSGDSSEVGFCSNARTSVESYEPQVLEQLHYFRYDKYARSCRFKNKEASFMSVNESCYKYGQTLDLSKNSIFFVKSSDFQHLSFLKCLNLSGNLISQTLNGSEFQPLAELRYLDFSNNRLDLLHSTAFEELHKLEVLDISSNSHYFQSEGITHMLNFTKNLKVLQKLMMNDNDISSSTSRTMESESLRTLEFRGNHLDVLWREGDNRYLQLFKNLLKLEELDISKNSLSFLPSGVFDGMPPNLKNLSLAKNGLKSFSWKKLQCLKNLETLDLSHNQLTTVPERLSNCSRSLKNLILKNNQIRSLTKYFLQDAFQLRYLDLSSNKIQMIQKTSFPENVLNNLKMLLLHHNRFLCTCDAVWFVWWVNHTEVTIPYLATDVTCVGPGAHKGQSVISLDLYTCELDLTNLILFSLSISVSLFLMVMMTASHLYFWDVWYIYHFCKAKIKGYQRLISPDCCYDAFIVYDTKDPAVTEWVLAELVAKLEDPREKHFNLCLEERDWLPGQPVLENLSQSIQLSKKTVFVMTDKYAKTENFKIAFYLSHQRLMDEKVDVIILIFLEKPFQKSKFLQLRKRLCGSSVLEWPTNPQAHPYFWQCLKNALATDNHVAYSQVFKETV
human TLR8, sequence (Q9NR97 27-1041): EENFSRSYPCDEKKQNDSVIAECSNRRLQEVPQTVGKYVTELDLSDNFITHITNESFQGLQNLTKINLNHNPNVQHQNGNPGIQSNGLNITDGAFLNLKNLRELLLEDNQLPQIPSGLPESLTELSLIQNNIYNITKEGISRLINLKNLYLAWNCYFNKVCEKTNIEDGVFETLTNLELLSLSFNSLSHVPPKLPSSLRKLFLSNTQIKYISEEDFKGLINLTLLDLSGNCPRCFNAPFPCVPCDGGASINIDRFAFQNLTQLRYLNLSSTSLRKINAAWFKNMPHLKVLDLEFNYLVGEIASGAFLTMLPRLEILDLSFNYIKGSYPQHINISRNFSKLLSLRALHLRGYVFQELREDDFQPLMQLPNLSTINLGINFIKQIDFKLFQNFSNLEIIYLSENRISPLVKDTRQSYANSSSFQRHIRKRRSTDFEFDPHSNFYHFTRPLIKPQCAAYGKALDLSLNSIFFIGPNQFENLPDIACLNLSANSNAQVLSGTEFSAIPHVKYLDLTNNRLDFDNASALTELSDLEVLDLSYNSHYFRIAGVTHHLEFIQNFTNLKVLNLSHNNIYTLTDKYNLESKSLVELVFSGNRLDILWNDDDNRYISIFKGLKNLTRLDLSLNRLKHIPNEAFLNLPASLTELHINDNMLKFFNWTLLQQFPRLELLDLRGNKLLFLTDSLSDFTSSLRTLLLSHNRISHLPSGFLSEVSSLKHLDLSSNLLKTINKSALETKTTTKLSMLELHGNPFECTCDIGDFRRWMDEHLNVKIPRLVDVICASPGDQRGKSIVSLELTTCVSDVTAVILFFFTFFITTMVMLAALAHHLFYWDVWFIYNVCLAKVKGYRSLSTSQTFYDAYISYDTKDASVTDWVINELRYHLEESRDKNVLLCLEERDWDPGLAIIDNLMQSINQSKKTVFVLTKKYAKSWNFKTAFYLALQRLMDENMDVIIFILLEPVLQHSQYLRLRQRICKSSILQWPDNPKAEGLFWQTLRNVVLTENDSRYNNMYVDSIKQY
human TLR9, sequence (Q9NR96 26-1032): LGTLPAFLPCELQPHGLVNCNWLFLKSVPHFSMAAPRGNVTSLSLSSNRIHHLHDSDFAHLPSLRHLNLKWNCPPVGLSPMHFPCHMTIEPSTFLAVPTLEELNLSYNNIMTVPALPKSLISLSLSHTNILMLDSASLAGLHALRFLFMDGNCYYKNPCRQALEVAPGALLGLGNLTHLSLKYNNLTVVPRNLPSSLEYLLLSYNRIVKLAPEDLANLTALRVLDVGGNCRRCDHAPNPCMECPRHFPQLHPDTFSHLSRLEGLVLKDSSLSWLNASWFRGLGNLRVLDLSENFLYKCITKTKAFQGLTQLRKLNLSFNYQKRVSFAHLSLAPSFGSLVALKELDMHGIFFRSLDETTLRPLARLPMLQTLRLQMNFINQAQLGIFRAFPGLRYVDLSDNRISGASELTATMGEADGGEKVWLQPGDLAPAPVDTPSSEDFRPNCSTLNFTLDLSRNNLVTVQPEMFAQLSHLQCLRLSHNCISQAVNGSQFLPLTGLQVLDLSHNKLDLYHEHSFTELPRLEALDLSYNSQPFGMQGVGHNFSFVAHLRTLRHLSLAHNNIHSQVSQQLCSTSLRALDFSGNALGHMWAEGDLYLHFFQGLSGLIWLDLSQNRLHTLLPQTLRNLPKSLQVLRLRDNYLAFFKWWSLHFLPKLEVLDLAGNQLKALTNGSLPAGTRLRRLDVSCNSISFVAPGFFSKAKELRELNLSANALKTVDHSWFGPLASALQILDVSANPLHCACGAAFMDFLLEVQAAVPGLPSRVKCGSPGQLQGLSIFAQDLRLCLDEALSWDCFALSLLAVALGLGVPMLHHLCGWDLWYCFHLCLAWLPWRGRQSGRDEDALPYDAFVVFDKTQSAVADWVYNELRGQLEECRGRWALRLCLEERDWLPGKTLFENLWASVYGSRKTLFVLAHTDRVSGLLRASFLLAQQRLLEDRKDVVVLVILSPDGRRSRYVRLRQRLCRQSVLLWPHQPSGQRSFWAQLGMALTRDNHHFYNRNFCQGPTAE

Row | IC50 [1, 4] [nM] | IC50 [2, 5] [nM] | IC50 [3, 6] [nM] | IC50 [1, 7] [nM] | IC50 [2, 8] [nM] | IC50 [3, 9] [nM] | IC50 [1, 10] [nM] | IC50 [2, 11] [nM] | SMILES
1 | 80.6 | 1780 | 13.1 |  |  |  |  |  | Cc1cc(-c2[nH]c3ccc(C4CCN(C(=O)CNCC(C)(C)O)CC4)cc3c2C(C)C)cc(C)n1 [Example 375, 1-(4-(2-(2,6-dimethylpyridin-4-yl)-3-isopropyl-1H-indol-5-yl)piperidin-1-yl)-2-((2-hydroxy-2-methylpropyl)amino)ethan-1-one]
2 | 55.2 | 1600 | 4.4 |  |  |  |  |  | Cc1cc(-c2[nH]c3ccc(C4CCN(C(=O)CN(CCO)Cc5ccccc5)CC4)cc3c2C(C)C)cc(C)n1 [Example 396, 2-(benzyl(2-hydroxyethyl)amino)-1-(4-(2-(2,6-dimethylpyridin-4-yl)-3-isopropyl-1H-indol-5-yl)piperidin-1-yl)ethan-1-one]
3 | 6 | 2300 | 7.7 |  |  |  |  |  | Cc1cc(-c2[nH]c3ccc(C4CCN(CC(=O)N(C)C)CC4)cc3c2C(C)C)c(Cl)c(C)n1 [Example 644, 2-(4-(2-(3-chloro-2,6-dimethylpyridin-4-yl)-3-isopropyl-1H-indol-5-yl)piperidin-1-yl)-N,N-dimethylacetamide]
4 | 1.1 | 1340 | 6.7 |  |  |  |  |  | Cc1cc(-c2[nH]c3ccc(C4CCN(C5CCOC5)CC4)cc3c2C(C)C)c(C)cn1 (stereo not drawn) [Example 728, 2-(2,5-dimethylpyridin-4-yl)-3-isopropyl-5-(1-(tetrahydrofuran-3-yl)piperidin-4-yl)-1H-indole]
5 | 2.5 | 775 | 1 |  |  |  |  |  | Cc1cc(-c2[nH]c3ccc(C4CCNCC4)cc3c2C(C)C)c(F)c(C)n1 [Example 51, 2-(3-fluoro-2,6-dimethylpyridin-4-yl)-3-isopropyl-5-(piperidin-4-yl)-1H-indole]
6 | 160 | 4610 | 1270 |  |  |  |  |  | CC(=O)Nc1cnc(C)cc1-c1[nH]c2ccc(C3CCNCC3)cc2c1C(C)C [Example 34, N-(4-(3-isopropyl-5-(piperidin-4-yl)-1H-indol-2-yl)-6-methylpyridin-3-yl)acetamide]
7 | 469 | 17500 | 119 |  |  |  |  |  | Cc1cc(-c2[nH]c3ccc(C4CCN(C(=O)C(F)(F)F)CC4)cc3c2C(C)C)ccn1 [Example 614, 2,2,2-trifluoro-1-(4-(3-isopropyl-2-(2-methylpyridin-4-yl)-1H-indol-5-yl)piperidin-1-yl)ethan-1-one]
8 |  |  |  | 59 | 3420 | 13.5 |  |  | Cc1cc(-c2[nH]c3ccc(C4CCN(C(=O)C(=O)NCC5CCNCC5)CC4)cc3c2C(C)C)cc(C)n1 [Example 861, 2-(4-(2-(2,6-dimethylpyridin-4-yl)-3-isopropyl-1H-indol-5-yl)piperidin-1-yl)-2-oxo-N-(piperidin-4-ylmethyl)acetamide]
9 | 1.4 | 2480 | 1.5 |  |  |  |  |  | Cc1cc(-c2[nH]c3ccc(C4CCNCC4)cc3c2C(C)C)c(F)cn1 [Example 16, 2-(5-fluoro-2-methylpyridin-4-yl)-3-isopropyl-5-(piperidin-4-yl)-1H-indole]
10 | 5.8 | 155 | 2.5 |  |  |  |  |  | Cc1cc(-c2[nH]c3ccc(C4CCN(CC5CCC5)CC4)cc3c2C(C)C)cc(C)n1 [Example 467, 5-(1-(cyclobutylmethyl)piperidin-4-yl)-2-(2,6-dimethylpyridin-4-yl)-3-isopropyl-1H-indole]
11 | 80.1 | 6560 | 202 |  |  |  |  |  | Cc1cc(-c2[nH]c3ccc(C4CCN(C(=O)[C@@H](N)CCCNC(N)=O)CC4)cc3c2C(C)C)ccn1 [Example 564, (S)-1-(4-amino-5-(4-(3-isopropyl-2-(2-methylpyridin-4-yl)-1H-indol-5-yl)piperidin-1-yl)-5-oxopentyl)urea]
12 | 115 | 3710 | 41.6 |  |  |  |  |  | COc1cc(-c2[nH]c3ccc(C4CCN(C(=O)CN(C)C)CC4)cc3c2C(C)C)ccn1 [Example 521, 2-(dimethylamino)-1-(4-(3-isopropyl-2-(2-methoxypyridin-4-yl)-1H-indol-5-yl)piperidin-1-yl)ethan-1-one]
13 |  |  | 9.3 |  |  |  | 52.4 | 36900 | Cc1cc(-c2[nH]c3ccc(C4CCN(C(=O)C5CC(=O)N(C)C5)CC4)cc3c2C(C)C)cc(C)n1 (single isomer, unassigned) [Example 101, 4-(4-(2-(2,6-dimethylpyridin-4-yl)-3-isopropyl-1H-indol-5-yl)piperidine-1-carbonyl)-1-methylpyrrolidin-2-one]
14 | 3.4 | 7510 | 62.5 |  |  |  |  |  | Cc1cc(-c2[nH]c3ccc(C4CCN(Cc5cc(C)on5)CC4)cc3c2C(C)C)c(C)cn1 [Example 685, 3-((4-(2-(2,5-dimethylpyridin-4-yl)-3-isopropyl-1H-indol-5-yl)piperidin-1-yl)methyl)-5-methylisoxazole]
15 | 100 | 41900 | 5.4 |  |  |  |  |  | CCC(=O)N1CCC(c2ccc3[nH]c(-c4cc(C)nc(C)c4)c(C(C)C)c3c2)CC1 [Example 206, 1-(4-(2-(2,6-dimethylpyridin-4-yl)-3-isopropyl-1H-indol-5-yl)piperidin-1-yl)propan-1-one]
16 | 66.9 | 688 | 6.1 |  |  |  |  |  | Cc1cc(-c2[nH]c3ccc(C4CCN(C(=O)CN(C)CC(O)c5ccccc5)CC4)cc3c2C(C)C)cc(C)n1 (stereo not drawn) [Example 399, 1-(4-(2-(2,6-dimethylpyridin-4-yl)-3-isopropyl-1H-indol-5-yl)piperidin-1-yl)-2-((2-hydroxy-2-phenylethyl)(methyl)amino)ethan-1-one]
17 |  |  |  | 12900 | 1090 | 841 |  |  | CCc1c(-c2ccncc2)[nH]c2ccc(C3CCN(Cc4cnc(Nc5ccccn5)s4)CC3)cc12 [Example 822, 5-((4-(3-ethyl-2-(pyridin-4-yl)-1H-indol-5-yl)piperidin-1-yl)methyl)-N-(pyridin-2-yl)thiazol-2-amine]
18 | 5.6 | 4100 | 16.1 |  |  |  |  |  | Cc1cc(-c2[nH]c3ccc(C4CCN(CC(=O)N(C)C)CC4)cc3c2C(C)C)c(C)cn1 [Example 642, 2-(4-(2-(2,5-dimethylpyridin-4-yl)-3-isopropyl-1H-indol-5-yl)piperidin-1-yl)-N,N-dimethylacetamide]
19 | 9.5 | 429 | 4 |  |  |  |  |  | Cc1cc(-c2[nH]c3ccc(C4CCN(C(=O)CNC5(C)CCC5)CC4)cc3c2C(C)C)cc(C)n1 [Example 353, 1-(4-(2-(2,6-dimethylpyridin-4-yl)-3-isopropyl-1H-indol-5-yl)piperidin-1-yl)-2-((1-methylcyclobutyl)amino)ethan-1-one]
20 |  |  |  | 4.8 | 267 | 1.2 |  |  | Cc1cc(-c2[nH]c3cc(F)c(C4CCN(C)CC4)cc3c2C(C)C)cc(C)n1 [Example 828, 2-(2,6-dimethylpyridin-4-yl)-6-fluoro-3-isopropyl-5-(1-methylpiperidin-4-yl)-1H-indole]
21 | 6.5 | 648 | 3.1 |  |  |  |  |  | Cc1cc(-c2[nH]c3ccc(C4CCN(CC(=O)NC5CC5)CC4)cc3c2C(C)C)cc(C)n1 [Example 212, N-cyclopropyl-2-(4-(2-(2,6-dimethylpyridin-4-yl)-3-isopropyl-1H-indol-5-yl)piperidin-1-yl)acetamide]
22 | 96.3 | > 50000 | 18.2 |  |  |  |  |  | Cc1cc(-c2[nH]c3ccc(C4CCN(C(=O)CC(=O)Nc5nccs5)CC4)cc3c2C(C)C)cc(C)n1 [Example 142, 3-(4-(2-(2,6-dimethylpyridin-4-yl)-3-isopropyl-1H-indol-5-yl)piperidin-1-yl)-3-oxo-N-(thiazol-2-yl)propanamide]
23 | 8.4 | 14500 | 78.4 |  |  |  |  |  | Cc1cc(-c2[nH]c3ccc(C4CCN(Cc5ncn(C)n5)CC4)cc3c2C(C)C)c(C)cn1 [Example 723, 2-(2,5-dimethylpyridin-4-yl)-3-isopropyl-5-(1-((1-methyl-1H-1,2,4-triazol-3-yl)methyl)piperidin-4-yl)-1H-indole]
24 |  |  | 6.4 |  |  |  | 7.1 | 165 | Cc1cc(-c2[nH]c3ccc(C4CCN(CC(=O)N5CC(O)C5)CC4)cc3c2C(C)C)cc(C)n1 [Example 229, 2-(4-(2-(2,6-dimethylpyridin-4-yl)-3-isopropyl-1H-indol-5-yl)piperidin-1-yl)-1-(3-hydroxyazetidin-1-yl)ethan-1-one]
25 | 13 | 604 | 3.5 |  |  |  |  |  | Cc1cc(-c2[nH]c3ccc(C4CCN(CC(=O)N5CCC[C@@H](O)C5)CC4)cc3c2C(C)C)cc(C)n1 [Example 209, (R)-2-(4-(2-(2,6-dimethylpyridin-4-yl)-3-isopropyl-1H-indol-5-yl)piperidin-1-yl)-1-(3-hydroxypiperidin-1-yl)ethan-1-one]
26 | 6.5 | 20100 | 42.3 |  |  |  |  |  | Cc1cc(-c2[nH]c3ccc(C4CCN(Cc5nncn5C)CC4)cc3c2C(C)C)c(C)cn1 [Example 736, 2-(2,5-dimethylpyridin-4-yl)-3-isopropyl-5-(1-((4-methyl-4H-1,2,4-triazol-3-yl)methyl)piperidin-4-yl)-1H-indole]
27 | 4.1 | 1480 | 16.5 |  |  |  |  |  | Cc1cc(-c2[nH]c3ccc(C4CCNCC4)cc3c2C(C)C)c(Br)c(C)n1 [Example 40, 2-(3-bromo-2,6-dimethylpyridin-4-yl)-3-isopropyl-5-(piperidin-4-yl)-1H-indole]
